Where two headings read alike, the source gives them in different places. Peptide text beside a SMILES is read from it.
Key:
Format in all cases: binding
[1] = target: T1, wild-type aprataxin FHA domain (Homo sapiens, UniProt Q7Z2E3); assay: ITC of wild-type aprataxin FHA domain with XRCC1 and XRCC4 phosphopeptides; conditions: 22 °C, 50 mM HEPES pH 7.5, 150 mM NaCl, 5 mM β-mercaptoethanol, peptide in syringe, XRCC1 peptides 1 mM into 100 μM protein, XRCC4 peptides 300 μM into 30 μM protein, single-site model, representative of triplicate
T1 construct: aprataxin residues 1–105; GST (pGEX-6P-1) (N, cleaved yes); made in house; host or cells: Escherichia coli BL21 (DE3)
Text: (§1) The genes for aprataxin residues 1–105 and APLF residues 1–106 were amplified using primer sets which incorporated 5′ BamHI and 3′ XhoI sites. PCR products and pGEX-6P-1 vector were digested with BamHI and XhoI and religated. All point mutations were generated using a QuickChange Site-Directed Mutagenesis Kit (Stratagene) following the manufacturer's recommended protocol.
(§2) For expression, the pGEX-6P-1/aprataxin-FHA constructs were transformed into Escherichia coli strain BL21 (DE3) and the pGEX-6P-1/APLF-FHA constructs transformed into the strain Rosetta2 (DE3). Cells were grown in LB at 37 °C to an A600 of 0.5, induced with 0.4 mM isopropyl 1-thio-β-D-galactopyranoside and incubated at 18 °C for a further 16 h before harvesting. Cells were lysed by sonication and clarified by centrifugation (20,000 × g × 30 min). The supernatant was applied to a glutathione-4B resin (Amersham) and cleaved from the resin with rhinovirus 3C protease. Proteins were purified further by gel-filtration chromatography on a Superdex 75 matrix in 20 mM Tris pH 7.5, 150 mM NaCl, 5 mM DTT. Selenomethionine-labelled APLF L91 M protein was expressed in Rosetta2 (DE3) cells cultured in SelenoMet base media and nutrients supplemented with seleno-methionine solution (Molecular Dimensions Ltd.) and purified as the wild-type protein.
(§3) Phosphopeptides based on the XRCC1 sequence 515-YAGSTDENTDSEEHQ-529 and the XRCC4 sequence 229-YDESTDEES-237 were synthesised with amidated C-termini to avoid potential end-effects of a free carboxy-terminus by Dr. W. Mawby (University of Bristol), purified by HPLC and characterised by mass spectrometry. FHA-phosphopeptide binding was quantified by isothermal titration calorimetry using a Microcal Omega VP-ITC calorimeter (MicroCal Inc., Northampton, MA). Protein was dialysed against ITC buffer (50 mM HEPES pH 7.5, 150 mM NaCl, 5 mM β-mercaptoethanol) and peptides were dissolved in the dialysis buffer. Experiments were carried out at 22 °C and involved 30 successive 10 μl injections of peptide solution into a sample cell containing protein solution. Titrations with XRCC1 peptides used peptide at 1 mM and protein at 100 μM and titrations with XRCC4 peptides used peptide at 300 μm and protein at 30 μM. Heats of dilution were subtracted and binding isotherms were plotted and analysed with MicroCal origin version 7.0, assuming a single-site binding model.

[2] = target: T2, aprataxin FHA domain (Homo sapiens, UniProt Q7Z2E3); assay: NMR (1H-SOFAST-HMQC) titrations of aprataxin FHA domain with XRCC1 phosphopeptides; conditions: NMR titration, 22 °C
T2 construct: aprataxin residues 1–105; GST (pGEX-6P-1) (N, cleaved yes); made in house; host or cells: Escherichia coli BL21 (DE3)
Method: NMR experiments were carried out at 22 °C on Bruker Avance II+ 600 MHz and Avance III 700 MHz spectrometers, each equipped with a cryogenic triple-resonance probe. Protein and peptides were prepared in NMR buffer (20 mM Na Acetate pH 5.8, 50 mM NaCl, 2 mM DTT). Three-dimensional HNCA, HNCO, HNCACB and CBCA(CO)NH experiments were performed to obtain backbone assignments. NMR titration experiments were carried out by adding the unlabelled XRCC1 peptides to ^15N-labeled aprataxin FHA domain. The initial protein concentration was 92 μM and volumes of 2 mM stock solution of peptide were added until the protein:peptide ratio was 1:4. ^1H-SOFAST-HMQC [36] spectra were measured after each titration step. All spectra were processed using nmrPipe, and analysed using CARA/NEASY [38]. The weighted chemical shift change (in ppm units) of each amide proton (ΔδHN) and nitrogen (ΔδN) was calculated according to the equation: Δδtotal = [(ΔδHNWHN)^2 + (ΔδNWN)^2]^1/2 with WHN = 1 and WN = 0.154 [39]. Weighted chemical shifts for residues D37, V45, Q46, V61 and V63 were plotted against peptide concentration to determine individual Kds and averaged to determine the apparent Kd.

[3] = target: T3, R42A Mutant of aprataxin FHA domain (Homo sapiens, UniProt Q7Z2E3, R56A); assay: ITC of R42A mutant of aprataxin FHA domain with XRCC1 and XRCC4 phosphopeptides; conditions: 22 °C, 50 mM HEPES pH 7.5, 150 mM NaCl, 5 mM β-mercaptoethanol, single-site model
T3 construct: aprataxin residues 1–105; GST (pGEX-6P-1) (N, cleaved yes); made in house; host or cells: Escherichia coli BL21 (DE3)
Text: as §1, §2, §3

[4] = target: T4, K38A Mutant of aprataxin FHA domain (Homo sapiens, UniProt Q7Z2E3, K52A); assay: ITC of K38A mutant of aprataxin FHA domain with XRCC1 and XRCC4 phosphopeptides; conditions: 22 °C, 50 mM HEPES pH 7.5, 150 mM NaCl, 5 mM β-mercaptoethanol, single-site model
T4 construct: aprataxin residues 1–105; GST (pGEX-6P-1) (N, cleaved yes); made in house; host or cells: Escherichia coli BL21 (DE3)
Text: as §1, §2, §3

[5] = 20 mM Na Acetate pH 5.8, 50 mM NaCl, 2 mM DTT, 92 µM 15N aprataxin FHA, 2 mM peptide stock, read-out: Kd from weighted chemical shift of residue Asp37
[6] = pH 5.8, 92 µM aprataxin FHA, read-out: Kd from weighted chemical shift of residue Gln46
[7] = pH 5.8, 92 µM aprataxin FHA, read-out: Kd from weighted chemical shift of residue Val45
[8] = pH 5.8, 92 µM aprataxin FHA, read-out: Kd from weighted chemical shift of residue Val61
[9] = pH 5.8, 92 µM aprataxin FHA, read-out: Kd from weighted chemical shift of residue Val63

T1 sequence (Q7Z2E3 15-119): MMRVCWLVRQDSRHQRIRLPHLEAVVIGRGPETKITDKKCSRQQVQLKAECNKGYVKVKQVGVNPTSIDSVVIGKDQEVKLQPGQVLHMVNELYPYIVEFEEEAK
T2 sequence (Q7Z2E3 15-119): as above
T4 sequence (Q7Z2E3 15-119 K52A): as the sequence (Q7Z2E3 15-119) above, with K38A counted along it
T3 sequence (Q7Z2E3 15-119 R56A): as the sequence (Q7Z2E3 15-119) above, with R42A counted along it

Row | Compound | Kd [1] | Kd [2, 5] | Kd [2, 6] | Kd [2, 7] | Kd [2, 8] | Kd [2, 9] | Kd ([2]; pH 5.8, tighter binders not well defined due to high protein concentration, read-out: overall apparent affinity (Kdapp) estimated from NMR titrations) | Kd [3] | Kd [4]
1 | C[C@H](NC(=O)[C@@H](N)Cc1ccc(O)cc1)C(=O)NCC(=O)N[C@@H](CO)C(=O)N[C@H](C(=O)N[C@@H](CC(=O)O)C(=O)N[C@@H](CCC(=O)O)C(=O)N[C@@H](CC(N)=O)C(=O)N[C@H](C(=O)N[C@@H](CC(=O)O)C(=O)N[C@@H](CO)C(=O)N[C@@H](CCC(=O)O)C(=O)N[C@@H](CCC(=O)O)C(=O)N[C@@H](Cc1c[nH]cn1)C(=O)N[C@@H](CCC(N)=O)C(N)=O)[C@@H](C)OP(=O)(O)O)[C@@H](C)O [YAGSTDENpTDSEEHQ] (HELM PEPTIDE1{Y.A.G.S.T.D.E.N.[C[C@@H](OP(=O)(O)O)[C@H](N[*:1])C(=O)[*:2]].D.S.E.E.H.Q.[am]}$$$$V2.0) | 42 ± 3.8 µM | 7.6 µM | 5.9 µM | 9.8 µM | 4 µM | 7.9 µM | 7 µM | – | –
2 | C[C@H](NC(=O)[C@@H](N)Cc1ccc(O)cc1)C(=O)NCC(=O)N[C@@H](CO)C(=O)N[C@H](C(=O)N[C@@H](CC(=O)O)C(=O)N[C@@H](CCC(=O)O)C(=O)N[C@@H](CC(N)=O)C(=O)N[C@H](C(=O)N[C@@H](CC(=O)O)C(=O)N[C@@H](COP(=O)(O)O)C(=O)N[C@@H](CCC(=O)O)C(=O)N[C@@H](CCC(=O)O)C(=O)N[C@@H](Cc1c[nH]cn1)C(=O)N[C@@H](CCC(N)=O)C(N)=O)[C@@H](C)OP(=O)(O)O)[C@@H](C)O [YAGSTDENpTDpSEEHQ] (HELM PEPTIDE1{Y.A.G.S.T.D.E.N.[C[C@@H](OP(=O)(O)O)[C@H](N[*:1])C(=O)[*:2]].D.[O=C([C@H](COP(=O)(O)O)N[*:1])[*:2]].E.E.H.Q.[am]}$$$$V2.0) | 33 ± 0.87 µM | – | – | – | – | – | – | – | –
3 | C[C@H](NC(=O)[C@@H](N)Cc1ccc(O)cc1)C(=O)NCC(=O)N[C@@H](CO)C(=O)N[C@H](C(=O)N[C@@H](CC(=O)O)C(=O)N[C@@H](CCC(=O)O)C(=O)N[C@@H](CC(N)=O)C(=O)N[C@H](C(=O)N[C@@H](CC(=O)O)C(=O)N[C@@H](CO)C(=O)N[C@@H](CCC(=O)O)C(=O)N[C@@H](CCC(=O)O)C(=O)N[C@@H](Cc1c[nH]cn1)C(=O)N[C@@H](CCC(N)=O)C(N)=O)[C@@H](C)O)[C@@H](C)OP(=O)(O)O [YAGSpTDENTDSEEHQ] (HELM PEPTIDE1{Y.A.G.S.[C[C@@H](OP(=O)(O)O)[C@H](N[*:1])C(=O)[*:2]].D.E.N.T.D.S.E.E.H.Q.[am]}$$$$V2.0) | 17 ± 0.4 µM | 9.6 µM | 5.3 µM | 8.1 µM | 4.2 µM | 6.8 µM | – | ≥ 100 µM | 46 ± 2 µM
4 | C[C@H](NC(=O)[C@@H](N)Cc1ccc(O)cc1)C(=O)NCC(=O)N[C@@H](COP(=O)(O)O)C(=O)N[C@H](C(=O)N[C@@H](CC(=O)O)C(=O)N[C@@H](CCC(=O)O)C(=O)N[C@@H](CC(N)=O)C(=O)N[C@H](C(=O)N[C@@H](CC(=O)O)C(=O)N[C@@H](CO)C(=O)N[C@@H](CCC(=O)O)C(=O)N[C@@H](CCC(=O)O)C(=O)N[C@@H](Cc1c[nH]cn1)C(=O)N[C@@H](CCC(N)=O)C(N)=O)[C@@H](C)O)[C@@H](C)OP(=O)(O)O [YAGpSpTDENTDSEEHQ] (HELM PEPTIDE1{Y.A.G.[O=C([C@H](COP(=O)(O)O)N[*:1])[*:2]].[C[C@@H](OP(=O)(O)O)[C@H](N[*:1])C(=O)[*:2]].D.E.N.T.D.S.E.E.H.Q.[am]}$$$$V2.0) | 1.5 ± 0.06 µM | 2 µM | 1.7 µM | 2.5 µM | 1.6 µM | 2.1 µM | – | 53.2 ± 5.8 µM | 12.8 ± 0.7 µM
